Target: T1, ΔF508-CFTR (Homo sapiens, UniProt P13569, DEL508-508)
T1 construct: expressed in transfected cells
Assay: Membrane potential optical assay (FRET/VIPR), identification of correction compounds
Type: cell-based
Details: for Emax: relative efficacy
Summary of the method: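 NIH3T3 cells stably expressing ΔF508-CFTR incubated 16 hrs at 37° C in serum-free medium with test compound; 27° C incubation as positive control. CFTR then activated with 10 μM forskolin plus 20 μM genistein in Cl^−-free medium; depolarization read by DiSBAC2(3)/CC2-DMPE FRET on VIPR.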

T1 sequence (P13569 with tags, fused parts or gaps DEL508-508): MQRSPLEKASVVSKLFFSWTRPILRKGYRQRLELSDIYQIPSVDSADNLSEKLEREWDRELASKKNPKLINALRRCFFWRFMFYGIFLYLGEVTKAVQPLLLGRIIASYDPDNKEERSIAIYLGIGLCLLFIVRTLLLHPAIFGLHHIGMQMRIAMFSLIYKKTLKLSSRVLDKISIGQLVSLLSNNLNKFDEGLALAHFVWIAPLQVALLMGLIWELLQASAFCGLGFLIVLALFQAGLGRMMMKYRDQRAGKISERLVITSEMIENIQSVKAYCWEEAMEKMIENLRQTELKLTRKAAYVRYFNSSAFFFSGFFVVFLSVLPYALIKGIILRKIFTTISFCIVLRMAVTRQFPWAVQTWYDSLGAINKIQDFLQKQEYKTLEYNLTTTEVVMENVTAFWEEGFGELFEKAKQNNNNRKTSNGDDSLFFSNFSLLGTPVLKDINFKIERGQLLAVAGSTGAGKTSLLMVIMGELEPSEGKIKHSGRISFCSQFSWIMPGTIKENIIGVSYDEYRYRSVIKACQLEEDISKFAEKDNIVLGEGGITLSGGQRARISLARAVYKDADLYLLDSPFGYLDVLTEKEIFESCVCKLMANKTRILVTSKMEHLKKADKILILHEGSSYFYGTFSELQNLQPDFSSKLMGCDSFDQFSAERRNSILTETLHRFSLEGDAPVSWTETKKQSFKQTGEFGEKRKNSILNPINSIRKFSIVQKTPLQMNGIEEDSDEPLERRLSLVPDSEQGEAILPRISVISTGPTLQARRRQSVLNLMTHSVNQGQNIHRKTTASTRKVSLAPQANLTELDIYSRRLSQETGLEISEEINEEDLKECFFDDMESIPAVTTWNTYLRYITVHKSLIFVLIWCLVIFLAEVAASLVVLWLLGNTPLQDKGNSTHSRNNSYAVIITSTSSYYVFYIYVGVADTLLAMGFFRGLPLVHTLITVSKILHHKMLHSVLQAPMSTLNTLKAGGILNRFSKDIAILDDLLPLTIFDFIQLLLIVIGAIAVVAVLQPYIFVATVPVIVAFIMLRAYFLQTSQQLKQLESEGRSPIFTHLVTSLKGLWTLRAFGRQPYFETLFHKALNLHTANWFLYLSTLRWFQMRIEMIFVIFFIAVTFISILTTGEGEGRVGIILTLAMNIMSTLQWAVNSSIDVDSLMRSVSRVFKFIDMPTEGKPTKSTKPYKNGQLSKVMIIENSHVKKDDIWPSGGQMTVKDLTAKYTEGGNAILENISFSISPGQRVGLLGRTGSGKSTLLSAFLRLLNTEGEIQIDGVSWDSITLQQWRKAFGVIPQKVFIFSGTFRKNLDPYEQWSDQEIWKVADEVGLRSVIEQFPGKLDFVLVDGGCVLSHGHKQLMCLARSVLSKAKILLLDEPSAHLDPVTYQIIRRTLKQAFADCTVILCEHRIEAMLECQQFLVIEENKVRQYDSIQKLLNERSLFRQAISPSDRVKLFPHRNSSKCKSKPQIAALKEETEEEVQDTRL

Row | EC50 | Emax | SMILES
1 | 25 to 60 µM | > 100% | CC(c1nc(N(C)C)c2ccccc2n1)N1CCN(S(=O)(=O)c2ccc(Br)cc2)CC1 (stereo not drawn) [compound 220]
2 | 25 to 60 µM | 25 to 100% | CCNc1nc(C(C)N2CCN(S(=O)(=O)c3ccc(Br)cc3)CC2)nc2ccccc12 (stereo not drawn) [compound 221]
3 | < 10 µM | 25 to 100% | CCN(CC)c1nc(C(C)N2CCN(S(=O)(=O)c3ccc(Br)cc3)CC2)nc2ccccc12 (stereo not drawn) [compound 222]
4 | 10 to 25 µM | > 100% | CC(c1nc(N2CCOCC2)c2ccccc2n1)N1CCN(S(=O)(=O)c2ccc(Br)cc2)CC1 (stereo not drawn) [compound 223]
5 | 25 to 60 µM | < 25% | COc1ccc(S(=O)(=O)N2CCC(NC(C)c3nc4ccccc4c(=O)n3C)C2)cc1 (stereo not drawn) [compound 224]
6 | 25 to 60 µM | < 25% | CC(NC1CCN(S(=O)(=O)c2ccc(Cl)cc2)C1)c1nc2ccccc2c(=O)n1C (stereo not drawn) [compound 225]
7 | 25 to 60 µM | 25 to 100% | CC(NC1CCN(S(=O)(=O)c2ccc(Br)cc2)C1)c1nc2ccccc2c(=O)n1C (stereo not drawn) [compound 226]
8 | 25 to 60 µM | 25 to 100% | COc1nc(C(C)N2CCN(S(=O)(=O)c3ccc(Br)cc3)CC2)nc2ccccc12 (stereo not drawn) [compound 227]
9 | < 10 µM | > 100% | CCOc1nc(C(C)N2CCN(S(=O)(=O)c3ccc(Br)cc3)CC2)nc2ccccc12 (stereo not drawn) [compound 228]
10 | 25 to 60 µM | 25 to 100% | CC(c1nc2ccccc2c(=O)n1C)N1CCN(S(=O)(=O)c2ccccc2Cl)CC1 (stereo not drawn) [compound 229]
11 | 25 to 60 µM | < 25% | CC(=O)Nc1ccc(S(=O)(=O)N2CCN(C(C)c3nc4ccccc4c(=O)n3C)CC2)cc1 (stereo not drawn) [compound 230]
12 | < 10 µM | > 100% | CC(c1nc(OC2CCCC2)c2ccccc2n1)N1CCN(S(=O)(=O)c2ccc(Cl)cc2)CC1 (stereo not drawn) [compound 231]
13 | 25 to 60 µM | 25 to 100% | CNc1nc(C(C)N2CCN(S(=O)(=O)c3ccc(Cl)cc3)CC2)nc2ccccc12 (stereo not drawn) [compound 232]
14 | 25 to 60 µM | 25 to 100% | CC(c1nc(N(C)C)c2ccccc2n1)N1CCN(S(=O)(=O)c2ccc(Cl)cc2)CC1 (stereo not drawn) [compound 233]
15 | 10 to 25 µM | 25 to 100% | CCNc1nc(C(C)N2CCN(S(=O)(=O)c3ccc(Cl)cc3)CC2)nc2ccccc12 (stereo not drawn) [compound 234]
16 | < 10 µM | 25 to 100% | CCN(CC)c1nc(C(C)N2CCN(S(=O)(=O)c3ccc(Cl)cc3)CC2)nc2ccccc12 (stereo not drawn) [compound 235]
17 | 25 to 60 µM | 25 to 100% | CC(c1nc(N2CCOCC2)c2ccccc2n1)N1CCN(S(=O)(=O)c2ccc(Cl)cc2)CC1 (stereo not drawn) [compound 236]
18 | < 10 µM | > 100% | CC(c1nc(N2CCCCC2)c2ccccc2n1)N1CCN(S(=O)(=O)c2ccc(Cl)cc2)CC1 (stereo not drawn) [compound 237]
19 | 25 to 60 µM | < 25% | CC(c1nc2ccccc2c(=O)n1C)N(C)CCNS(=O)(=O)c1ccc(Cl)cc1 (stereo not drawn) [compound 238]
20 | 25 to 60 µM | < 25% | CC(=O)c1ccc(S(=O)(=O)N2CCN(C(C)c3nc4ccccc4c(=O)n3C)CC2)cc1 (stereo not drawn) [compound 239]
21 | 25 to 60 µM | < 25% | CC(c1nc2ccccc2c(=O)n1C)N1CCN(S(=O)(=O)c2ccc(C(=O)O)cc2)CC1 (stereo not drawn) [compound 240]

Row | EC50 | Emax | SMILES
22 | < 10 µM | > 100% | CC(c1nc2ccccc2c(=O)n1C)N1CCN(S(=O)(=O)c2ccc(Cl)c(Cl)c2)CC1 (stereo not drawn) [compound 241]
23 | 25 to 60 µM | < 25% | CC(c1nc2ccccc2c(=O)n1C)N1CCN(S(=O)(=O)c2ccc(-c3ccccc3)cc2)CC1 (stereo not drawn) [compound 242]
24 | 25 to 60 µM | 25 to 100% | CC(=O)Nc1nc(C)c(S(=O)(=O)N2CCN(C(C)c3nc4ccccc4c(=O)n3C)CC2)s1 (stereo not drawn) [compound 243]
25 | 25 to 60 µM | 25 to 100% | C=Cc1ccc(S(=O)(=O)N2CCN(C(C)c3nc4ccccc4c(=O)n3C)CC2)cc1 (stereo not drawn) [compound 244]
26 | 25 to 60 µM | < 25% | COC(=O)c1ccccc1S(=O)(=O)N1CCN(C(C)c2nc3ccccc3c(=O)n2C)CC1 (stereo not drawn) [compound 245]
27 | 25 to 60 µM | < 25% | CC(c1nc2ccccc2c(=O)n1C)N1CCN(S(=O)(=O)c2cccc(C(=O)O)c2)CC1 (stereo not drawn) [compound 246]
28 | 10 to 25 µM | 25 to 100% | CC(c1nc2ccccc2c(=O)n1C)N1CCN(S(=O)(=O)c2ccc(Br)s2)CC1 (stereo not drawn) [compound 247]
29 | 25 to 60 µM | < 25% | CC(c1nc2ccccc2c(=O)n1C)N1CCN(S(=O)(=O)c2cccc(F)c2)CC1 (stereo not drawn) [compound 248]
30 | 25 to 60 µM | 25 to 100% | COc1cccc(S(=O)(=O)N2CCN(C(C)c3nc4ccccc4c(=O)n3C)CC2)c1 (stereo not drawn) [compound 249]
31 | 25 to 60 µM | 25 to 100% | CC(c1nc2ccccc2c(=O)n1C)N1CCN(S(=O)(=O)c2ccc(C#N)cc2)CC1 (stereo not drawn) [compound 250]
32 | 25 to 60 µM | < 25% | CC(c1nc2ccccc2c(=O)n1C)N1CCN(S(=O)(=O)c2cccc3cnccc23)CC1 (stereo not drawn) [compound 251]
33 | 25 to 60 µM | 25 to 100% | CC(c1nc2ccccc2c(=O)n1C)N1CCN(S(=O)(=O)c2ccc3oc(=O)ccc3c2)CC1 (stereo not drawn) [compound 252]
34 | 25 to 60 µM | 25 to 100% | CC(c1nc2ccccc2c(=O)n1C)N1CCN(S(=O)(=O)c2ccccc2F)CC1 (stereo not drawn) [compound 253]
35 | < 10 µM | 25 to 100% | CC(c1nc2ccccc2c(=O)n1C)N1CCN(S(=O)(=O)c2c(Cl)ccc3nonc23)CC1 (stereo not drawn) [compound 254]
36 | 25 to 60 µM | < 25% | CC(c1nc2ccccc2c(=O)n1C)N1CCN(S(=O)(=O)c2ccc(Oc3ccccc3)cc2)CC1 (stereo not drawn) [compound 255]
37 | 25 to 60 µM | < 25% | COC(=O)c1sccc1S(=O)(=O)N1CCN(C(C)c2nc3ccccc3c(=O)n2C)CC1 (stereo not drawn) [compound 256]
38 | 25 to 60 µM | < 25% | Cc1nn(C)c(Cl)c1S(=O)(=O)N1CCN(C(C)c2nc3ccccc3c(=O)n2C)CC1 (stereo not drawn) [compound 257]
39 | 25 to 60 µM | < 25% | CC(c1nc2ccccc2c(=O)n1C)N1CCN(S(=O)(=O)c2ccc(-c3cc(C(F)(F)F)nn3C)s2)CC1 (stereo not drawn) [compound 258]
40 | 25 to 60 µM | < 25% | CC(c1nc2ccccc2c(=O)n1C)N1CCN(S(=O)(=O)c2ccccc2C#N)CC1 (stereo not drawn) [compound 259]
41 | 10 to 25 µM | 25 to 100% | CC(c1nc2ccccc2c(=O)n1C)N1CCN(S(=O)(=O)c2ccc(Cl)s2)CC1 (stereo not drawn) [compound 260]
42 | 25 to 60 µM | 25 to 100% | CC(c1nc2ccccc2c(=O)n1C)N1CCN(S(=O)(=O)c2ccc(-c3cc(C(F)(F)F)on3)s2)CC1 (stereo not drawn) [compound 261]

Row | EC50 | Emax | SMILES
43 | 25 to 60 µM | < 25% | CC(c1nc2ccccc2c(=O)n1C)N1CCN(S(=O)(=O)c2ccc(S(C)(=O)=O)cc2)CC1 (stereo not drawn) [compound 262]
44 | 25 to 60 µM | < 25% | CC(c1nc2ccccc2c(=O)n1C)N1CCN(S(=O)(=O)c2cc(S(=O)(=O)c3ccccc3)cs2)CC1 (stereo not drawn) [compound 263]
45 | 25 to 60 µM | < 25% | CC(c1nc2ccccc2c(=O)n1C)N1CCN(S(=O)(=O)c2cccc3nonc23)CC1 (stereo not drawn) [compound 264]
46 | 25 to 60 µM | < 25% | CC(c1nc2ccccc2c(=O)n1C)N1CCN(S(=O)(=O)c2ccc(S(=O)(=O)c3ccccc3)s2)CC1 (stereo not drawn) [compound 265]
47 | 25 to 60 µM | < 25% | Cc1noc(C)c1S(=O)(=O)N1CCN(C(C)c2nc3ccccc3c(=O)n2C)CC1 (stereo not drawn) [compound 266]
48 | 25 to 60 µM | < 25% | CC(c1nc2ccccc2c(=O)n1C)N1CCN(S(=O)(=O)c2ccc(Oc3ccccc3)nc2)CC1 (stereo not drawn) [compound 267]
49 | 25 to 60 µM | < 25% | CC(c1nc2ccccc2c(=O)n1C)N1CCN(S(=O)(=O)c2c(Cl)nc3sccn23)CC1 (stereo not drawn) [compound 268]
50 | 25 to 60 µM | < 25% | CC(c1nc2ccccc2c(=O)n1C)N1CCN(S(=O)(=O)c2ccc(-c3ccon3)s2)CC1 (stereo not drawn) [compound 269]
51 | 25 to 60 µM | < 25% | Cc1c(S(=O)(=O)N2CCN(C(C)c3nc4ccccc4c(=O)n3C)CC2)sc2ccc(Cl)cc12 (stereo not drawn) [compound 270]
52 | 25 to 60 µM | < 25% | CC(c1nc2ccccc2c(=O)n1C)N1CCN(S(=O)(=O)c2ccc(Cl)c3nonc23)CC1 (stereo not drawn) [compound 271]
53 | < 10 µM | 25 to 100% | CC(c1nc2ccccc2c(=O)n1C)N1CCN(S(=O)(=O)c2csc3ccccc23)CC1 (stereo not drawn) [compound 272]
54 | 25 to 60 µM | < 25% | CC(C)c1ccc(S(=O)(=O)N2CCN(C(C)c3nc4ccccc4c(=O)n3C)CC2)cc1 (stereo not drawn) [compound 273]
55 | 25 to 60 µM | < 25% | CC(c1nc2ccccc2c(=O)n1C)N1CCN(S(=O)(=O)c2cccs2)CC1 (stereo not drawn) [compound 274]
56 | 25 to 60 µM | < 25% | CC(c1nc2ccccc2c(=O)n1C)N1CCN(S(=O)(=O)c2ccc(-c3cc(C(F)(F)F)n(C)n3)s2)CC1 (stereo not drawn) [compound 275]
57 | 25 to 60 µM | < 25% | CC(c1nc2ccccc2c(=O)n1C)N1CCN(S(=O)(=O)c2cccc3cccnc23)CC1 (stereo not drawn) [compound 276]
58 | 25 to 60 µM | < 25% | CSc1nccc(-c2ccc(S(=O)(=O)N3CCN(C(C)c4nc5ccccc5c(=O)n4C)CC3)s2)n1 (stereo not drawn) [compound 277]
59 | 25 to 60 µM | < 25% | CC(c1nc2ccccc2c(=O)n1C)N1CCN(S(=O)(=O)Cc2ccccc2)CC1 (stereo not drawn) [compound 278]
60 | 25 to 60 µM | < 25% | CC(c1nc2ccccc2c(=O)n1C)N1CCN(S(=O)(=O)c2cccc(C#N)c2)CC1 (stereo not drawn) [compound 279]
61 | 10 to 25 µM | < 25% | CC(c1nc2ccccc2c(=O)n1C)N1CCN(S(=O)(=O)c2ccc(-c3csnn3)s2)CC1 (stereo not drawn) [compound 280]
62 | 25 to 60 µM | < 25% | CC(c1nc2ccccc2c(=O)n1C)N1CCN(S(=O)(=O)c2ccc(-c3ccccn3)s2)CC1 (stereo not drawn) [compound 281]
63 | 25 to 60 µM | < 25% | CC(c1nc2ccccc2c(=O)n1C)N1CCN(S(=O)(=O)c2cccc3nsnc23)CC1 (stereo not drawn) [compound 282]

— patent US8642609B2, “Modulators of ATP-binding cassette transporters” (Vertex Pharmaceuticals Incorporated, priority 2003, dated 2014)
